Experimental data as given in patent US20080009418A1, “Selective Inhibitors” (Alchemia LTD., priority 2004, published 2008).

Experiments:
[1] = molecular target: T1, Human melanin-concentrating hormone (MCH1) (Homo sapiens, UniProt Q99705); test: Radioligand binding, human melanin-concentrating hormone MCH1 membranes, FlashPlate, [125I]-S36057; conditions: compound at 10 μM; for A6: inhibition of radioligand binding, human melanin-concentrating hormone (MCH1): [125I]-S36057
T1 construct: purchased Perkin Elmer Biosignal
Procedure, shortened: (§1)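 Cloned human receptor membranes were coated onto FlashPlate wells and incubated with radioligand and compound (added from a 0.5 mM DMSO daughter plate) for 1 hour at room temperature in the dark. Scintillation counting gave percent inhibition, with DMSO defining total and reference ligand defining non-specific binding.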

Human melanocortin (MC5) = molecular target: T2, Human melanocortin (MC5) (Homo sapiens, UniProt P33032); test: Radioligand binding, human melanocortin MC5 membranes, FlashPlate, [125I]-NDP-αMSH; conditions: compound at 10 μM, [125I]-NDP-αMSH
T2 construct: purchased Perkin Elmer Biosignal
Procedure, shortened: as §1

Human Melanocortin (MC3) = molecular target: T3, Human Melanocortin (MC3) (Homo sapiens, UniProt P41968); test: Radioligand binding, human melanocortin MC3 membranes, FlashPlate, [125I]-NDP-αMSH; conditions: compound at 10 μM, [125I]-NDP-αMSH
T3 construct: purchased Perkin Elmer Biosignal
Procedure, shortened: as §1

Human neurokinin (NK1) = molecular target: T4, Human neurokinin (NK1) (Homo sapiens, UniProt P25103); test: Radioligand binding, human neurokinin NK1 membranes, filtration, [125I]-Substance P; conditions: compound at 10 μM, [125I]-Substance P
T4 construct: purchased Perkin Elmer Biosignal
Procedure, shortened: (§2)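 Filtration binding on cloned human receptor membranes (1 Unit/well), [125I]-Substance P for NK1 and [3H]-Diprenorphine for KOP, 1 h at room temperature. Filters PEI-presoaked, washed with cold 50 mM Tris-HCl pH 7.4, counted by scintillation; percent inhibition calculated, reference ligand defining non-specific binding.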

Mouse urotensin (mUR2) = molecular target: T5, Mouse urotensin (mUR2) (Mus musculus, UniProt Q8VIH9); test: Radioligand binding, mouse urotensin mUR2 membranes, FlashPlate, [125I]-Urotensin II; conditions: compound at 10 μM, [125I]-Urotensin II
T5 construct: purchased Perkin Elmer Biosignal
T5 sequence (Q8VIH9 1-385): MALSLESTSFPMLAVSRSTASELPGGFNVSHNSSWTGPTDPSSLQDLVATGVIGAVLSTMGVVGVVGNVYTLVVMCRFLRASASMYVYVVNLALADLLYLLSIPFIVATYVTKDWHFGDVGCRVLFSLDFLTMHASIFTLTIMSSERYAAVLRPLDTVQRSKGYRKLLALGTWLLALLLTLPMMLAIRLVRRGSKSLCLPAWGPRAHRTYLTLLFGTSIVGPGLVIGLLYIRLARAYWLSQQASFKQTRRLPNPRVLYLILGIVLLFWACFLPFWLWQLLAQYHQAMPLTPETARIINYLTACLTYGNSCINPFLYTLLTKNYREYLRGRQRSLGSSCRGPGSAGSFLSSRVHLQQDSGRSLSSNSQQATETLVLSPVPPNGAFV
Procedure, shortened: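 Cloned mouse urotensin (mUR2) receptor membranes from Perkin Elmer Biosignal were immobilized in FlashPlate microplates using a proprietary coating. Each well got 19.5 μl buffer, then 0.5 μl of DMSO, reference ligand, or compound. Adding 5 μl of [125I]-Urotensin II, diluted to 5× final concentration in binding buffer, started binding. Plates were sealed with TopSeal-A and incubated 1 hour at room temperature in the dark. Wells were counted for 30 seconds each on a TopCount after a 60-second delay, and percentage inhibition was calculated.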

Human κ-Opioid (KOP) = molecular target: T6, Human κ-Opioid (KOP) (Homo sapiens, UniProt P41145); test: Radioligand binding, human κ-opioid (KOP) membranes, filtration, [3H]-Diprenorphine; conditions: compound at 10 μM, [3H]-Diprenorphine
T6 construct: purchased Perkin Elmer Biosignal
Procedure, shortened: as §2

Human μ-opioid (MOP) = molecular target: T7, Human μ-opioid (MOP) (Homo sapiens, UniProt P35372); test: Radioligand binding, human μ-opioid (MOP) membranes, FlashPlate, [3H]-Naloxone; conditions: compound at 10 μM, [3H]-Naloxone
T7 construct: purchased Perkin Elmer Biosignal
Procedure, shortened: as §1

Human δ-opioid (DOP) = molecular target: T8, Human δ-opioid (DOP) (Homo sapiens, UniProt P41143); test: Radioligand binding, human δ-opioid (DOP) membranes, FlashPlate, [3H]-Bremazocine; conditions: compound at 10 μM, [3H]-Bremazocine
T8 construct: purchased Perkin Elmer Biosignal
Procedure, shortened: as §1

Human opioid (ORL1) = molecular target: T9, Human opioid (ORL1) (Homo sapiens, UniProt P41146); test: Radioligand binding, human opioid ORL1 membranes, FlashPlate, [125I]-Nociceptin; conditions: compound at 10 μM, [125I]-Nociceptin
T9 construct: purchased Perkin Elmer Biosignal
Procedure, shortened: as §1

Human Melanocortin (MC4) = molecular target: T10, Human Melanocortin (MC4) (Homo sapiens, UniProt P32245); test: Radioligand binding, human melanocortin MC4 membranes, FlashPlate, [125I]-NDP-αMSH; conditions: compound at 10 μM, [125I]-NDP-αMSH
T10 construct: purchased Perkin Elmer Biosignal
Procedure, shortened: as §1

[2] = molecular target: T11, Human neuropeptide Y (NPY-Y1) (Homo sapiens, UniProt P25929); test: Radioligand binding, human neuropeptide Y NPY-Y1 membranes, FlashPlate, [125I]-PYY; conditions: compound at 10 μM, [125I]-PYY
T11 construct: purchased Perkin Elmer Biosignal
T11 sequence (P25929 1-384): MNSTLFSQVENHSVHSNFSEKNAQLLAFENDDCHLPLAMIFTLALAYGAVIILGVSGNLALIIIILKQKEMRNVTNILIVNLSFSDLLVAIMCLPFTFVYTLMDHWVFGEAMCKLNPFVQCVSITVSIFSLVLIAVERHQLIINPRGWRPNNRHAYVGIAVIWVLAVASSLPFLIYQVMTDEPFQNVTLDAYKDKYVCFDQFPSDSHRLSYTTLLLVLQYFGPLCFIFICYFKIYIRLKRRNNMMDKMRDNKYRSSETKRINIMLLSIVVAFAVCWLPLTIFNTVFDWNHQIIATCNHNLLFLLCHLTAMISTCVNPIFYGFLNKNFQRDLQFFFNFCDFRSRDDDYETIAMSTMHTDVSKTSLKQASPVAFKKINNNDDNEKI
Procedure, shortened: as §1

T6 sequence (P41145 whole entry): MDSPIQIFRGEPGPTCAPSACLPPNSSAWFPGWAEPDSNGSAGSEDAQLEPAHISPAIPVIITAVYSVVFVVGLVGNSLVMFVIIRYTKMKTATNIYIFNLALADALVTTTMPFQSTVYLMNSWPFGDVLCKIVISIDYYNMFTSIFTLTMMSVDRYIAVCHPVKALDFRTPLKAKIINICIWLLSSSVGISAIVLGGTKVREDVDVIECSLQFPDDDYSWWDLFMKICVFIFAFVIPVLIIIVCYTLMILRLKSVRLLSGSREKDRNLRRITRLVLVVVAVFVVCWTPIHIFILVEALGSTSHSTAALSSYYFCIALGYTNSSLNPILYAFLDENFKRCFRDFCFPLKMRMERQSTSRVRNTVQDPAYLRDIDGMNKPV
T4 sequence (P25103 whole entry): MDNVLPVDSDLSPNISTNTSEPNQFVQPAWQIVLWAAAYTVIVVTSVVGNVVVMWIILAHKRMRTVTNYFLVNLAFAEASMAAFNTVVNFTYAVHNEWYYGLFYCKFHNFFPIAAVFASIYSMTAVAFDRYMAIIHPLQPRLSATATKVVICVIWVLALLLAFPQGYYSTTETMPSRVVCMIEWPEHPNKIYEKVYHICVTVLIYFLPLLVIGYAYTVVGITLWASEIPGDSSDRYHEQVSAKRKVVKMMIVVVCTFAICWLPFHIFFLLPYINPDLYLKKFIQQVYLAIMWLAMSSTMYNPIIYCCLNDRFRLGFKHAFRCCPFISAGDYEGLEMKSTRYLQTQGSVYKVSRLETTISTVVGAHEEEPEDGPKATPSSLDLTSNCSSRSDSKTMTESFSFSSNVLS
T8 sequence (P41143 whole entry): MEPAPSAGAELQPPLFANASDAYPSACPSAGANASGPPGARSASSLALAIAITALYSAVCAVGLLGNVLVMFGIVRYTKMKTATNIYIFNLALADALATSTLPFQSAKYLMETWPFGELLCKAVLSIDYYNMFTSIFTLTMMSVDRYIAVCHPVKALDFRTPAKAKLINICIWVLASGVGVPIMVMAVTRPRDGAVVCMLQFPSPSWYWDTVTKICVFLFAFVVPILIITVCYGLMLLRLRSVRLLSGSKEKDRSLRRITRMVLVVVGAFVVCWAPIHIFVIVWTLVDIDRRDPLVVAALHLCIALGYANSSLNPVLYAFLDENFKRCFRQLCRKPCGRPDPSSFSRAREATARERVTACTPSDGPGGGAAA
T10 sequence (P32245 whole entry): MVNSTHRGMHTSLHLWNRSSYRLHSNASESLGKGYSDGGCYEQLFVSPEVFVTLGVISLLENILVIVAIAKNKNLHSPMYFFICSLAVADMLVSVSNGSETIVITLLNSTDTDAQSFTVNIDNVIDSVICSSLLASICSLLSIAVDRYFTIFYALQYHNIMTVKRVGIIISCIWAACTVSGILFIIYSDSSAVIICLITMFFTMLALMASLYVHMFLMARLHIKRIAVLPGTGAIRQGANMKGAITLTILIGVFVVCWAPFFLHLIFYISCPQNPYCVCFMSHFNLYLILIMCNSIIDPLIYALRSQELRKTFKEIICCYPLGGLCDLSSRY
T1 sequence (Q99705 whole entry): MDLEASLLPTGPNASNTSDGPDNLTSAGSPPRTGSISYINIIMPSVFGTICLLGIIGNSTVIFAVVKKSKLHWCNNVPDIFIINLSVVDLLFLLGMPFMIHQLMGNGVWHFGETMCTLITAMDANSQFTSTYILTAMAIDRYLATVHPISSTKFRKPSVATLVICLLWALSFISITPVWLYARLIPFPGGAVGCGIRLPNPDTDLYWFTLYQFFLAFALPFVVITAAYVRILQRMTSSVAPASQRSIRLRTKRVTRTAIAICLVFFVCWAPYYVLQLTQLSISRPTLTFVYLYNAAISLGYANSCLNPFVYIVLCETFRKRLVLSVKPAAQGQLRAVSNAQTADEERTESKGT
T7 sequence (P35372 whole entry): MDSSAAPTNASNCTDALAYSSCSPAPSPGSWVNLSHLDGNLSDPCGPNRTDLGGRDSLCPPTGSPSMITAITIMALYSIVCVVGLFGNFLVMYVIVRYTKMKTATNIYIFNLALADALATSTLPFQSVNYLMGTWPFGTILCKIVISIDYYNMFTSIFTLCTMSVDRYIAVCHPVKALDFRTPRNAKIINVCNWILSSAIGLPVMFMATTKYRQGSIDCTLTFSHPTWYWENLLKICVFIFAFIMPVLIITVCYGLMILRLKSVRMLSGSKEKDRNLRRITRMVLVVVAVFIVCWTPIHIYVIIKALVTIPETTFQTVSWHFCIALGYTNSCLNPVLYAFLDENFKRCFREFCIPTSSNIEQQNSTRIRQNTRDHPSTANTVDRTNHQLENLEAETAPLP
T2 sequence (P33032 whole entry): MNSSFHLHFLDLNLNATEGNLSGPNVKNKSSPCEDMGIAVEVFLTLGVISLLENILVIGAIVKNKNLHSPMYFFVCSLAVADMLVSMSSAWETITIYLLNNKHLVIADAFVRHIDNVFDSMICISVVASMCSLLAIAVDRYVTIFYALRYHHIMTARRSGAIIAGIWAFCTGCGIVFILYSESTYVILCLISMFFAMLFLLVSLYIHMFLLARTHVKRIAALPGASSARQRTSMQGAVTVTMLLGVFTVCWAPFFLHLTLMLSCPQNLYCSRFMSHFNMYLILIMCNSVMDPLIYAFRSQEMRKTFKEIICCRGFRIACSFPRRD
T3 sequence (P41968 whole entry): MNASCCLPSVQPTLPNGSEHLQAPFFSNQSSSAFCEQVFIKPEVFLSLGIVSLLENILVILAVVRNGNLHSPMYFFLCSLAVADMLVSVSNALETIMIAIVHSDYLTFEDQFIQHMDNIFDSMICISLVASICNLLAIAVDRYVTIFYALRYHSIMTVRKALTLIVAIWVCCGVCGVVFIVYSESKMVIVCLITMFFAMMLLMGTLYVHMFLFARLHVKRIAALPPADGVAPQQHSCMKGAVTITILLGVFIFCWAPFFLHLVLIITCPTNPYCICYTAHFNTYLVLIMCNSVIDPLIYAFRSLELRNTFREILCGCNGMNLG
T9 sequence (P41146 whole entry): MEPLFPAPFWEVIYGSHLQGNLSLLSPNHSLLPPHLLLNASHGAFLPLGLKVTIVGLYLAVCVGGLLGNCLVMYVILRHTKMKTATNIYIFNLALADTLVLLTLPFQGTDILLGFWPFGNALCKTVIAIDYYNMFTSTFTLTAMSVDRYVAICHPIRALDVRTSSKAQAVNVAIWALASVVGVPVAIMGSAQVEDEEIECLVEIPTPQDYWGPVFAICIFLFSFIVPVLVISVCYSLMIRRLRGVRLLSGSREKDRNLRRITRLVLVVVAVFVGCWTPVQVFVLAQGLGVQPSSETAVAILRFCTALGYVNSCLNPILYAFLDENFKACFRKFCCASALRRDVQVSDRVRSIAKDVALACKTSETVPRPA

| Structure (SMILES) | A6: inhibition of radioligand binding, human melanin-concentrating hormone (MCH1) [1] | A5: inhibition of radioligand binding, human melanocortin (MC5) (Human melanocortin (MC5)) | A3: inhibition of radioligand binding, human melanocortin (MC3) (Human Melanocortin (MC3)) | A8: inhibition of radioligand binding, human neurokinin (NK1) (Human neurokinin (NK1)) | A11: inhibition of radioligand binding, mouse urotensin (mUR2) (Mouse urotensin (mUR2)) | A2: inhibition of radioligand binding, human κ-opioid (KOP) (Human κ-Opioid (KOP)) | A7: inhibition of radioligand binding, human μ-opioid (MOP) (Human μ-opioid (MOP)) | A1: inhibition of radioligand binding, human δ-opioid (DOP) (Human δ-opioid (DOP)) | A10: inhibition of radioligand binding, human opioid (ORL1) (Human opioid (ORL1)) | A4: inhibition of radioligand binding, human melanocortin (MC4) (Human Melanocortin (MC4)) | A9: inhibition of radioligand binding, human neuropeptide Y (NPY-Y1) [2] | A3: inhibition of radioligand binding (Human Melanocortin (MC3); human MC3 membranes) | A8: inhibition of radioligand binding (Human neurokinin (NK1); human NK1 membranes) | A11: inhibition of radioligand binding (Mouse urotensin (mUR2); mouse mUR2 membranes) | A2: inhibition of radioligand binding (Human κ-Opioid (KOP); human KOP membranes) | A7: inhibition of radioligand binding (Human μ-opioid (MOP); human MOP membranes) | A1: inhibition of radioligand binding (Human δ-opioid (DOP); human DOP membranes) | A10: inhibition of radioligand binding (Human opioid (ORL1); human ORL1 membranes) | A9: inhibition of radioligand binding ([2]; human NPY-Y1 membranes) | also measured |
| --- | --- | --- | --- | --- | --- | --- | --- | --- | --- | --- | --- | --- | --- | --- | --- | --- | --- | --- | --- | --- |
| CSC1OC(COCc2ccc(Cl)cc2)C(O)C(OCc2ccc3ccccc3c2)C1NC(=O)CCCN (stereo not shown) [compound 310] | − (“−” indicates less than 50% inhibition at 10 μM) | − (“−” indicates less than 50% inhibition at 10 μM) | − (“−” indicates less than 50% inhibition at 10 μM) | + (“+” indicates greater than 50% inhibition at 10 μM) | − (“−” indicates less than 50% inhibition at 10 μM) | − (“−” indicates less than 50% inhibition at 10 μM) | − (“−” indicates less than 50% inhibition at 10 μM) | − (“−” indicates less than 50% inhibition at 10 μM) | − (“−” indicates less than 50% inhibition at 10 μM) | − (“−” indicates less than 50% inhibition at 10 μM) | − (“−” indicates less than 50% inhibition at 10 μM) | – | – | – | – | – | – | – | – | – |
| NCCC(=O)N[C@H]1C(OCc2ccc3ccccc3c2)O[C@H](COCc2ccccc2)[C@@H](O)[C@@H]1OCc1ccc(Cl)cc1 (stereo partly shown) [compound 438] | – | – | – | – | – | – | – | – | – | – | – | − (“−” indicates less than 50% inhibition at 10 μM) | + (“+” indicates greater than 50% inhibition at 10 μM) | − (“−” indicates less than 50% inhibition at 10 μM) | − (“−” indicates less than 50% inhibition at 10 μM) | − (“−” indicates less than 50% inhibition at 10 μM) | − (“−” indicates less than 50% inhibition at 10 μM) | − (“−” indicates less than 50% inhibition at 10 μM) | − (“−” indicates less than 50% inhibition at 10 μM) | A6: inhibition of radioligand binding ([1]; [125I]-S36057, human MCH1 membranes, 10 µM): + (“+” indicates greater than 50% inhibition at 10 μM); A5: inhibition of radioligand binding (Human melanocortin (MC5); human MC5 membranes, 10 µM): − (“−” indicates less than 50% inhibition at 10 μM); A4: inhibition of radioligand binding (Human Melanocortin (MC4); human MC4 membranes, 10 µM): − (“−” indicates less than 50% inhibition at 10 μM) |
| N=C(N)NCC(=O)NC1C(OCc2ccc(-c3ccccc3)cc2)OC(COCc2ccc(Cl)cc2)C(O)C1OCc1ccc(Cl)cc1 (stereo not shown) [compound 401] | – | – | – | – | – | – | – | – | – | – | – | + (“+” indicates greater than 50% inhibition at 10 μM) | + (“+” indicates greater than 50% inhibition at 10 μM) | − (“−” indicates less than 50% inhibition at 10 μM) | − (“−” indicates less than 50% inhibition at 10 μM) | − (“−” indicates less than 50% inhibition at 10 μM) | − (“−” indicates less than 50% inhibition at 10 μM) | + (“+” indicates greater than 50% inhibition at 10 μM) | − (“−” indicates less than 50% inhibition at 10 μM) | A6: inhibition of radioligand binding ([1]; [125I]-S36057, human MCH1 membranes): + (“+” indicates greater than 50% inhibition at 10 μM); A5: inhibition of radioligand binding (Human melanocortin (MC5); human MC5 membranes): + (“+” indicates greater than 50% inhibition at 10 μM); A4: inhibition of radioligand binding (Human Melanocortin (MC4); human MC4 membranes): + (“+” indicates greater than 50% inhibition at 10 μM) |
| COC[C@H]1OC(OCc2ccc(Cl)cc2)[C@H](NC(=O)CCCN)[C@@H](OCc2ccc3ccccc3c2)[C@@H]1O (single isomer, unassigned) [compound 344] | − (“−” indicates less than 50% inhibition at 10 μM) | − (“−” indicates less than 50% inhibition at 10 μM) | − (“−” indicates less than 50% inhibition at 10 μM) | + (“+” indicates greater than 50% inhibition at 10 μM) | − (“−” indicates less than 50% inhibition at 10 μM) | − (“−” indicates less than 50% inhibition at 10 μM) | − (“−” indicates less than 50% inhibition at 10 μM) | − (“−” indicates less than 50% inhibition at 10 μM) | − (“−” indicates less than 50% inhibition at 10 μM) | − (“−” indicates less than 50% inhibition at 10 μM) | − (“−” indicates less than 50% inhibition at 10 μM) | – | – | – | – | – | – | – | – | – |
| CSC1O[C@H](COCc2ccc(-c3ccccc3)cc2)[C@@H](O)[C@@H](OCc2ccc(Cl)cc2)[C@H]1NC(=O)CCN (stereo partly shown) [compound 276] | – | – | – | – | – | – | – | – | – | – | – | – | – | – | – | – | – | – | – | A6: inhibition of radioligand binding ([1]; [125I]-S36057, FlashPlate): − (“−” indicates less than 50% inhibition at 10 μM); A5: inhibition of radioligand binding (Human melanocortin (MC5); FlashPlate): − (“−” indicates less than 50% inhibition at 10 μM); A3: inhibition of radioligand binding (Human Melanocortin (MC3); FlashPlate): − (“−” indicates less than 50% inhibition at 10 μM); A8: inhibition of radioligand binding (Human neurokinin (NK1); filtration): + (“+” indicates greater than 50% inhibition at 10 μM); A11: inhibition of radioligand binding (Mouse urotensin (mUR2); FlashPlate): − (“−” indicates less than 50% inhibition at 10 μM); A2: inhibition of radioligand binding (Human κ-Opioid (KOP); filtration): − (“−” indicates less than 50% inhibition at 10 μM); A7: inhibition of radioligand binding (Human μ-opioid (MOP); FlashPlate): − (“−” indicates less than 50% inhibition at 10 μM); A1: inhibition of radioligand binding (Human δ-opioid (DOP); FlashPlate): − (“−” indicates less than 50% inhibition at 10 μM); A10: inhibition of radioligand binding (Human opioid (ORL1); FlashPlate): − (“−” indicates less than 50% inhibition at 10 μM); A4: inhibition of radioligand binding (Human Melanocortin (MC4); FlashPlate): − (“−” indicates less than 50% inhibition at 10 μM); A9: inhibition of radioligand binding ([2]; FlashPlate): − (“−” indicates less than 50% inhibition at 10 μM) |
